The results in this text go back to patent publication US4118561A, “7-(Substituted)-7H-pyrrolo[3,2-f]quinazoline-1,3-diamines” (priority 1977, dated 1978).

Experiment [1] concerns S. paratyphi 11737. Nature of the experiment: In vitro antibacterial activity (MIC), S. paratyphi 11737. It counts as cell-based. Particulars: Salmonella enterica, 18 h.
For experiment [2], the system named is E. coli 9637. Nature of the experiment: In vitro antibacterial activity (MIC), E. coli 9637. Particulars: Escherichia coli, 9637, 18 h.
Experiment [3] relates to S. aureus Smith. Nature of the experiment: In vitro antibacterial activity (MIC), S. aureus Smith. Conditions: Staphylococcus aureus, 18 h.
Experiment [4] has as its system S. aureus 53-180. Nature of the experiment: In vitro antibacterial activity (MIC), S. aureus 53-180. Conditions: Staphylococcus aureus, 53180, 18 h.
Experiment [5] deals with P. vulgaris 6896. The experiment can be described thus: In vitro antibacterial activity (MIC), P. vulgaris 6896. Conditions: Proteus vulgaris, 6896, 18 h.
The subject of experiment [6] is N. catarrhalis 8193. Nature of the experiment: In vitro antibacterial activity (MIC), N. catarrhalis 8193. Particulars: 18 h.
In experiment [7] the test system is K. pneumoniae 10031. The experiment can be described thus: In vitro antibacterial activity (MIC), K. pneumoniae 10031. Particulars: Klebsiella pneumoniae, 10031, 18 h.

In brackets after ≈: the same amount, converted by molar mass.

What is called MIC is the least concentration at which growth counts as inhibited. A low value points to greater potency.

For the molecule `Nc1nc(N)c2c(ccc3c2ccn3Cc2cccs2)n1` [Example 59], the MIC is 0.244 µg/mL (≈ 0.826 µM) in experiment [1]; 0.061 µg/mL (≈ 0.207 µM) in experiment [2]; 0.244 µg/mL (≈ 0.826 µM) in experiment [3]; 0.061 µg/mL (≈ 0.207 µM) in experiment [4]; 0.244 µg/mL (≈ 0.826 µM) in experiment [5]; 0.0019 µg/mL (≈ 0.00643 µM) in experiment [6]. The molecule also had an MIC in experiment [7] of 0.061 µg/mL (≈ 0.207 µM).

As for `Nc1nc(N)c2c(ccc3c2ccn3Cc2ccc3ccccc3c2Br)n1` [Example 60], the MIC in experiment [1] is more than 250 µg/mL; in experiment [2], more than 250 µg/mL; in experiment [3], 31.3 µg/mL (≈ 74.8 µM); in experiment [4] it was 15.6 µg/mL (≈ 37.3 µM); in experiment [5], more than 250 µg/mL; in experiment [6], 0.488 µg/mL (≈ 1.17 µM). Moreover, the minimum inhibitory concentration (MIC) in experiment [7] was found to be 15.6 µg/mL (≈ 37.3 µM).

For `Cn1ccc2c3c(N)nc(N)nc3ccc21` [Example 65, 7-Methyl-7H-pyrrolo[3,2-f]quinazoline-1,3-diamine], the MIC turned out to be 3.9 µg/mL (≈ 18.3 µM) in experiment [1]; 0.976 µg/mL (≈ 4.58 µM) in experiment [2]; 62.5 µg/mL (≈ 293 µM) in experiment [3]; 7.81 µg/mL (≈ 36.6 µM) in experiment [4]; 1.95 µg/mL (≈ 9.14 µM) in experiment [5]; 0.031 µg/mL (≈ 0.145 µM) in experiment [6]. Besides, the MIC in experiment [7] amounted to 1.95 µg/mL (≈ 9.14 µM).

`Nc1nc(N)c2c(ccc3c2ccn3CC2CCCO2)n1` (stereo not shown) [Example 67, 7-[(Tetrahydro-2-furanyl)methyl]-7H-pyrrolo-[3,2-f]quinazoline-1,3-diamine]: the MIC in experiment [1] is 7.81 µg/mL (≈ 27.6 µM); in experiment [2], 1.95 µg/mL (≈ 6.88 µM); in experiment [3], 3.9 µg/mL (≈ 13.8 µM); in experiment [4], 0.976 µg/mL (≈ 3.44 µM); in experiment [5] it was 3.9 µg/mL (≈ 13.8 µM); in experiment [6], 0.0038 µg/mL (≈ 0.0134 µM). In addition, in experiment [7], 0.488 µg/mL (≈ 1.72 µM) was the least that counted as inhibitory (MIC).

For `Nc1nc(N)c2c(ccc3c2ccn3Cc2ccc(C(=O)[O-])cc2)n1.[Na+]` [Example 68, 7-(4-Carboxybenzyl)-7H-pyrrolo[3,2-f]-quinazoline-1,3-diamine, sodium salt], the minimum inhibitory concentration (MIC) in experiment [1] was more than 250 µg/mL; in experiment [2], more than 250 µg/mL; in experiment [3], 250 µg/mL; in experiment [4] it was 250 µg/mL; in experiment [5], 250 µg/mL; in experiment [6] it was 62.5 µg/mL. Besides, the MIC in experiment [7] is more than 250 µg/mL.

For the molecule `CCC(=O)c1ccc(-n2ccc3c4c(N)nc(N)nc4ccc32)cc1` [Example 72], the MIC in experiment [1] was more than 250 µg/mL; in experiment [2], 15.6 µg/mL (≈ 47.1 µM); in experiment [3] it was 31.3 µg/mL (≈ 94.5 µM); in experiment [4], 7.81 µg/mL (≈ 23.6 µM); in experiment [5] it was more than 250 µg/mL; in experiment [6], 0.031 µg/mL (≈ 0.0935 µM). This molecule also returned an MIC in experiment [7] of 31.3 µg/mL (≈ 94.5 µM).

With `N#Cc1ccccc1-n1ccc2c3c(N)nc(N)nc3ccc21` [Example 73], the minimum inhibitory concentration (MIC) amounted to 0.122 µg/mL (≈ 0.406 µM) in experiment [1]; 0.122 µg/mL (≈ 0.406 µM) in experiment [2]; 0.031 µg/mL (≈ 0.103 µM) in experiment [3]; 0.0152 µg/mL (≈ 0.0506 µM) in experiment [4]; 0.488 µg/mL (≈ 1.62 µM) in experiment [5]; 0.0038 µg/mL (≈ 0.0127 µM) in experiment [6]. The same molecule gave an MIC in experiment [7] of 0.0152 µg/mL (≈ 0.0506 µM).

For the molecule `CS(=O)(=O)c1ccc(-n2ccc3c4c(N)nc(N)nc4ccc32)cc1` [Example 74], the MIC was 7.81 µg/mL (≈ 22.1 µM) in experiment [1]; 0.976 µg/mL (≈ 2.76 µM) in experiment [2]; 0.976 µg/mL (≈ 2.76 µM) in experiment [3]; 0.976 µg/mL (≈ 2.76 µM) in experiment [4]; 15.6 µg/mL (≈ 44.1 µM) in experiment [5]; 0.0152 µg/mL (≈ 0.043 µM) in experiment [6]. Moreover, the MIC in experiment [7] stood at 0.244 µg/mL (≈ 0.69 µM).

Take `CCOC(=O)c1ccc(-n2ccc3c4c(N)nc(N)nc4ccc32)cc1` [Example 75]: the MIC in experiment [1] is more than 250 µg/mL; in experiment [2], more than 250 µg/mL; in experiment [3], 125 µg/mL (≈ 360 µM); in experiment [4], 7.81 µg/mL (≈ 22.5 µM); in experiment [5], more than 250 µg/mL; in experiment [6], 0.122 µg/mL (≈ 0.351 µM). It took 250 µg/mL (≈ 720 µM) to inhibit growth in experiment [7] (MIC).

In the case of `Nc1nc(N)c2c(ccc3c2ccn3-c2ccc([N+](=O)[O-])cc2[N+](=O)[O-])n1` [Example 78], the MIC is more than 250 µg/mL in experiment [1]; 3.9 µg/mL (≈ 10.7 µM) in experiment [2]; 0.0076 µg/mL (≈ 0.0208 µM) in experiment [3]; 0.0076 µg/mL (≈ 0.0208 µM) in experiment [4]; more than 250 µg/mL in experiment [5]; 0.0019 µg/mL (≈ 0.0052 µM) in experiment [6]. For the same molecule, the MIC in experiment [7] is 0.031 µg/mL (≈ 0.0849 µM).

Turning to `N#Cc1cc([N+](=O)[O-])ccc1-n1ccc2c3c(N)nc(N)nc3ccc21` [Example 79], the MIC in experiment [1] is more than 250 µg/mL; in experiment [2] it was 15.6 µg/mL (≈ 45.2 µM); in experiment [3], 0.488 µg/mL (≈ 1.41 µM); in experiment [4] it was 0.488 µg/mL (≈ 1.41 µM); in experiment [5], more than 250 µg/mL; in experiment [6], 0.244 µg/mL (≈ 0.707 µM). Moreover, the MIC in experiment [7] was 1.95 µg/mL (≈ 5.65 µM).

For the molecule `Nc1nc(N)c2c(ccc3c2ccn3-c2ccccn2)n1` [Example 83], the minimum inhibitory concentration (MIC) in experiment [1] amounted to 0.976 µg/mL (≈ 3.53 µM); in experiment [2], 0.488 µg/mL (≈ 1.77 µM); in experiment [3] it was 0.976 µg/mL (≈ 3.53 µM); in experiment [4], 0.488 µg/mL (≈ 1.77 µM); in experiment [5], 0.976 µg/mL (≈ 3.53 µM); in experiment [6], 0.0076 µg/mL (≈ 0.0275 µM). In experiment [7], the MIC was determined as 0.244 µg/mL (≈ 0.883 µM).

With `Nc1nc(N)c2c(ccc3c2ccn3-c2ncccn2)n1` [Example 84], the MIC was more than 250 µg/mL in experiment [1]; 7.81 µg/mL (≈ 28.2 µM) in experiment [2]; 15.6 µg/mL (≈ 56.3 µM) in experiment [3]; 3.9 µg/mL (≈ 14.1 µM) in experiment [4]; more than 250 µg/mL in experiment [5]; 0.061 µg/mL (≈ 0.22 µM) in experiment [6]. In experiment [7], this molecule had an MIC of 0.976 µg/mL (≈ 3.52 µM).
